Measurements reported in publication PMC8096243 (Nucleic Acids Research, 2021).

Experiments:
Type in all cases: binding
EcCdnD [1] = biological target: T1, EcCdnD (Enterobacter hormaechei, UniProt P0DSP4); experiment: ITC, single site
T1 sequence (P0DSP4 1-381): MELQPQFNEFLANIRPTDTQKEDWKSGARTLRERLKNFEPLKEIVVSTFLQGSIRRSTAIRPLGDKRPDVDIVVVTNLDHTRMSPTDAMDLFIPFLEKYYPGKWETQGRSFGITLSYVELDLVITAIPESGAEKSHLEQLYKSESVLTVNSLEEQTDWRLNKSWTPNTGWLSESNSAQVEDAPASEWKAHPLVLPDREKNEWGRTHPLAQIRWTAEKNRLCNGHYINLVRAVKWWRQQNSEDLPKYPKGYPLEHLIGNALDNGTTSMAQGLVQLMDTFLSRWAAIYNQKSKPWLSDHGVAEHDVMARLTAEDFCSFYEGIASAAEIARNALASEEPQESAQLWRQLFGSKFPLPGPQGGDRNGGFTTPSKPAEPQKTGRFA

EcCdnD [2] = biological target: T1, EcCdnD; experiment: crystal structure
EcCdnD [3] = biological target: T1, EcCdnD; experiment: crystal structure; remark: listed apart in the source

SMILES: Nc1nc2c(ncn2[C@@H]2O[C@H](COP(=O)(O)O[C@H]3[C@@H](O)[C@H](n4cnc5c(N)ncnc54)O[C@@H]3COP(=O)(O)OP(=O)(O)OP(=O)(O)O)[C@@H](O)[C@H]2O)c(=O)[nH]1 [5′-pppApG-3′]
- Kd (EcCdnD [1]): 29.7 ± 2.2 µM

SMILES: Nc1ncnc2c1ncn2[C@@H]1O[C@H](COP(=O)(O)OP(=O)(O)O)[C@@H](O)[C@H]1O [ADP]
- crystal structure (1.87 Å), together with donor ATP (EcCdnD [2]): The diphosphate group makes seven hydrogen bonds with Arg109, Arg197 and Arg307

SMILES: Nc1ncnc2c1ncn2[C@H]1CC[C@@H](CO[P@@](=O)(O)O[P@](=O)(O)OP(=O)(O)O)O1 [ddATP]
- crystal structure (2.09 Å) (EcCdnD [3]): the ddATP occupied the binding site for the donor substrate
